Experimental data reported in PMC6704710, “Preclinical evaluation of 3D185, a novel potent inhibitor of FGFR1/2/3 and CSF-1R, in FGFR-dependent and macrophage-dominant cancer models” (Journal of Experimental & Clinical Cancer Research : CR, 2019).

Experiments:
Test in all cases: Eurofins kinase panel
Type in all cases: biochemical
Details in all cases: read-out: Inhibition rate (%)
GRK3(h) = biological target: T1, GRK3(h) (Homo sapiens, UniProt P35626)
T1 construct: purchased Eurofins (KinaseProfiler)
T1 sequence (P35626 1-688): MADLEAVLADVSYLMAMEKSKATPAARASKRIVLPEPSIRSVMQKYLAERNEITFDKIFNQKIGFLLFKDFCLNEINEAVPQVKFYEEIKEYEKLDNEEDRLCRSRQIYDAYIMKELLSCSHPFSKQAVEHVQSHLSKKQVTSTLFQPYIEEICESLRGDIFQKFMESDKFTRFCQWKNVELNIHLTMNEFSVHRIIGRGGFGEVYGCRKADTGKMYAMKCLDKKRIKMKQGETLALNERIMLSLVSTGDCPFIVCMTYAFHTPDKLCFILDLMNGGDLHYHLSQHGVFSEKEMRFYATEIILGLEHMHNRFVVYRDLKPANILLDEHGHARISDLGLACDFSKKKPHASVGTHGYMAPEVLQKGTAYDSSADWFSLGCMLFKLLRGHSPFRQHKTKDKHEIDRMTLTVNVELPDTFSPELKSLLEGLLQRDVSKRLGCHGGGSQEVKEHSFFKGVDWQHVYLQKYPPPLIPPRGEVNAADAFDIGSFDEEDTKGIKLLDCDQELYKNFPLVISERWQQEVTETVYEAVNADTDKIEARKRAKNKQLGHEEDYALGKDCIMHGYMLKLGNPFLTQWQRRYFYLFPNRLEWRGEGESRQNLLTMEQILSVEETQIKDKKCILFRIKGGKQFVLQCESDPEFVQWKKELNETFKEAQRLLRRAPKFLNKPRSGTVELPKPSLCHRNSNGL

IR(h) = biological target: T2, IR(h) (Homo sapiens, UniProt P06213)
T2 construct: purchased Eurofins (KinaseProfiler)

MLK2(h) = biological target: T3, MLK2(h) (Homo sapiens, UniProt Q02779)
T3 construct: purchased Eurofins (KinaseProfiler)

NEK1(h) = biological target: T4, NEK1(h) (Homo sapiens, UniProt Q96PY6)
T4 construct: purchased Eurofins (KinaseProfiler)
T4 sequence (Q96PY6 1-1258): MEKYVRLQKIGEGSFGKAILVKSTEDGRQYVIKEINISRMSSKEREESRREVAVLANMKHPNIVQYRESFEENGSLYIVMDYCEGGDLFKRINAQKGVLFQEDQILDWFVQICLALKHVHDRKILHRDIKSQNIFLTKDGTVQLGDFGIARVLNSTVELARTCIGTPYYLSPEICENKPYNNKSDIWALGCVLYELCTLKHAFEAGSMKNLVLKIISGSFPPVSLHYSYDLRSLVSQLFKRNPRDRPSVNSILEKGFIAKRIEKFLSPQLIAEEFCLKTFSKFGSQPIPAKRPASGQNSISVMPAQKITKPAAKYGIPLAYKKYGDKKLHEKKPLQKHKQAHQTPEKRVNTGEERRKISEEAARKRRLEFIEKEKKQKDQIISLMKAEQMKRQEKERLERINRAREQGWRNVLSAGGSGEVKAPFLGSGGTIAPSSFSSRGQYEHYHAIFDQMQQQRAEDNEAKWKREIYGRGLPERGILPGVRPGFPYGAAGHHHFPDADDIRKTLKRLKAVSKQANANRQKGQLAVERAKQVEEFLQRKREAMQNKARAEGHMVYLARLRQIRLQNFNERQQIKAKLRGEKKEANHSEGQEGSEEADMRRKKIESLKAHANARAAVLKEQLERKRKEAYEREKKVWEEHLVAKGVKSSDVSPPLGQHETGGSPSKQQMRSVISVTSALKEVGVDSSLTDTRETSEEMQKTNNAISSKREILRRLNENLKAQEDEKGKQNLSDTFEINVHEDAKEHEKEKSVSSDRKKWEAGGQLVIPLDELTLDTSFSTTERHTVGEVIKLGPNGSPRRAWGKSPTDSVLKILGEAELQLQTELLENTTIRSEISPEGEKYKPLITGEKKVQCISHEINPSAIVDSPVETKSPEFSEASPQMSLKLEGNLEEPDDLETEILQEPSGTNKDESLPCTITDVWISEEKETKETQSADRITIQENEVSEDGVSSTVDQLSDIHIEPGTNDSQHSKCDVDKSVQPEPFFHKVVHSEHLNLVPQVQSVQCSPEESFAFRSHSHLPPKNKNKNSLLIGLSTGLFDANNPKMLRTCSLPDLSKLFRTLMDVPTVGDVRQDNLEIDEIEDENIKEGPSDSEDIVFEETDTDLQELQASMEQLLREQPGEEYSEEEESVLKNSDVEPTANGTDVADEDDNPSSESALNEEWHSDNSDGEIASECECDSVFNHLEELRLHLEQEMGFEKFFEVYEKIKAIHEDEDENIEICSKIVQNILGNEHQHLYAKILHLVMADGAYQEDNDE

Pyk2(h) = biological target: T5, Pyk2(h) (Homo sapiens, UniProt Q14289)
T5 construct: purchased Eurofins (KinaseProfiler)

cKit(D816V)(h) = biological target: T6, cKit(D816V)(h) (Homo sapiens, UniProt P10721, D816V)
T6 construct: purchased Eurofins (KinaseProfiler)

CDKL3(h) = biological target: T7, CDKL3(h) (Homo sapiens, UniProt Q8IVW4)
T7 construct: purchased Eurofins (KinaseProfiler)
T7 sequence (Q8IVW4 whole entry): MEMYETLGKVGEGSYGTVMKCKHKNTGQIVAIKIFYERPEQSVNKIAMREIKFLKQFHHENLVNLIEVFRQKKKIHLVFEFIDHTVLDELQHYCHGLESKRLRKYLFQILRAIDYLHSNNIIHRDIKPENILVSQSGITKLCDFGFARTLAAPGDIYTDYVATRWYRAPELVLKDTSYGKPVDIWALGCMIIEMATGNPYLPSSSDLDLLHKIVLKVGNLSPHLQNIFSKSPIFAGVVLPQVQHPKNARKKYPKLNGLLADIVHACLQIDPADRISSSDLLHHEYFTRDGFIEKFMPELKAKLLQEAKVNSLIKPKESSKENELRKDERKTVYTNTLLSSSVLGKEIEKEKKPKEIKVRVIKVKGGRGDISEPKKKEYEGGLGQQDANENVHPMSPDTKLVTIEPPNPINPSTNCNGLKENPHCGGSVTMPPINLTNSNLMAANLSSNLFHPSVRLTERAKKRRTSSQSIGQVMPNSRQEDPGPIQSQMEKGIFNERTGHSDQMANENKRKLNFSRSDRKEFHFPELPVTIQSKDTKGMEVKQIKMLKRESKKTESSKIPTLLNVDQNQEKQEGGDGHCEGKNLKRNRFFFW

T6 sequence (P10721 26-976 D816V): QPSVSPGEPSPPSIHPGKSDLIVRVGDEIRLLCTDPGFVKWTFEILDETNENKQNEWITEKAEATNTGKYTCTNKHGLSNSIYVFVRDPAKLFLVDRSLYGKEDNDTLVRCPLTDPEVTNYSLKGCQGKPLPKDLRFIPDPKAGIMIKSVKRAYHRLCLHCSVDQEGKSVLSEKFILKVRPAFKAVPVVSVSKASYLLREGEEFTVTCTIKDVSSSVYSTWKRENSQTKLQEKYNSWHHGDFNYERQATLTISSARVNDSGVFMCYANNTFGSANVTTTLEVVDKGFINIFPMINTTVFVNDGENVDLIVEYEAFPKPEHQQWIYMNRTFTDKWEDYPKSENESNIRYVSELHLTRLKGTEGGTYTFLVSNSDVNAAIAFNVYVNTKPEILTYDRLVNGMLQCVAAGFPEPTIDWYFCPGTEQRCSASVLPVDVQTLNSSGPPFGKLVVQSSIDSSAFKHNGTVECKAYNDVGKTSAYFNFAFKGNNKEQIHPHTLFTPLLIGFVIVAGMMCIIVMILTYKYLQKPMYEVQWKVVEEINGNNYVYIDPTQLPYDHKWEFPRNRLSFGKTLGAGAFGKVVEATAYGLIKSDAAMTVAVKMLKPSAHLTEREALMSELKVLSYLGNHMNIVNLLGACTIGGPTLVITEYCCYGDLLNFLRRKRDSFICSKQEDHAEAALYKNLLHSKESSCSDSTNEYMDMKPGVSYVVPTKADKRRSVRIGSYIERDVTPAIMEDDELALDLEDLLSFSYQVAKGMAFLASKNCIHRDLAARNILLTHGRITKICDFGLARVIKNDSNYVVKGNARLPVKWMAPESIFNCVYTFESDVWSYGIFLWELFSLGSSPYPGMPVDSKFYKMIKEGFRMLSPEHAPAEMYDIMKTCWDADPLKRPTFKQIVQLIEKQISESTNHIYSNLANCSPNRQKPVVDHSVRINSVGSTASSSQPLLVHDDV
T5 sequence (Q14289 whole entry): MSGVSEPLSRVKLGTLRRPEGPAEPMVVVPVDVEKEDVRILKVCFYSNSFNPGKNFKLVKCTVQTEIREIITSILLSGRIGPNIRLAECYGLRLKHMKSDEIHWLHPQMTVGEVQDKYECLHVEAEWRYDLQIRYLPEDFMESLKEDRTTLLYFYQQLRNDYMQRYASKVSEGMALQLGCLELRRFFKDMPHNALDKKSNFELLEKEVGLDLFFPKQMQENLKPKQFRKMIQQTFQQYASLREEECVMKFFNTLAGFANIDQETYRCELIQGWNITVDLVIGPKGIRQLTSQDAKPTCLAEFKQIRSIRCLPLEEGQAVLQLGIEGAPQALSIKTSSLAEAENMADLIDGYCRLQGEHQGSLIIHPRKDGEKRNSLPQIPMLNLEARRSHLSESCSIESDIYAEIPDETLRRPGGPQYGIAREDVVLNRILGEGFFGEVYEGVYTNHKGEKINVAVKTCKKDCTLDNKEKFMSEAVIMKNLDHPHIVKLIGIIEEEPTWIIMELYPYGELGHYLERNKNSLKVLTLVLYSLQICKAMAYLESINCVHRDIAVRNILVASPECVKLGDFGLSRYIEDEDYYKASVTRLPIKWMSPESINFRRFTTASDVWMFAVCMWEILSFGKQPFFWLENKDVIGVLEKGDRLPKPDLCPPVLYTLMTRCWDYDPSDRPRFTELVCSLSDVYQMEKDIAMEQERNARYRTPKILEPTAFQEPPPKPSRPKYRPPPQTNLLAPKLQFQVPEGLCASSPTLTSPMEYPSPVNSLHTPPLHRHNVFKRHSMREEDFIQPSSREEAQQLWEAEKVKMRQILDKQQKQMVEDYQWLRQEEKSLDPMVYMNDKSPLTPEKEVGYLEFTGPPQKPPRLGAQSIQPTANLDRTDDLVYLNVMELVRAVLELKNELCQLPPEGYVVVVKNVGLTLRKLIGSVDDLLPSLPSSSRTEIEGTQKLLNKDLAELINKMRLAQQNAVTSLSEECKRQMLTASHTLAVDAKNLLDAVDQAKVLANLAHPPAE
T2 sequence (P06213 28-1382): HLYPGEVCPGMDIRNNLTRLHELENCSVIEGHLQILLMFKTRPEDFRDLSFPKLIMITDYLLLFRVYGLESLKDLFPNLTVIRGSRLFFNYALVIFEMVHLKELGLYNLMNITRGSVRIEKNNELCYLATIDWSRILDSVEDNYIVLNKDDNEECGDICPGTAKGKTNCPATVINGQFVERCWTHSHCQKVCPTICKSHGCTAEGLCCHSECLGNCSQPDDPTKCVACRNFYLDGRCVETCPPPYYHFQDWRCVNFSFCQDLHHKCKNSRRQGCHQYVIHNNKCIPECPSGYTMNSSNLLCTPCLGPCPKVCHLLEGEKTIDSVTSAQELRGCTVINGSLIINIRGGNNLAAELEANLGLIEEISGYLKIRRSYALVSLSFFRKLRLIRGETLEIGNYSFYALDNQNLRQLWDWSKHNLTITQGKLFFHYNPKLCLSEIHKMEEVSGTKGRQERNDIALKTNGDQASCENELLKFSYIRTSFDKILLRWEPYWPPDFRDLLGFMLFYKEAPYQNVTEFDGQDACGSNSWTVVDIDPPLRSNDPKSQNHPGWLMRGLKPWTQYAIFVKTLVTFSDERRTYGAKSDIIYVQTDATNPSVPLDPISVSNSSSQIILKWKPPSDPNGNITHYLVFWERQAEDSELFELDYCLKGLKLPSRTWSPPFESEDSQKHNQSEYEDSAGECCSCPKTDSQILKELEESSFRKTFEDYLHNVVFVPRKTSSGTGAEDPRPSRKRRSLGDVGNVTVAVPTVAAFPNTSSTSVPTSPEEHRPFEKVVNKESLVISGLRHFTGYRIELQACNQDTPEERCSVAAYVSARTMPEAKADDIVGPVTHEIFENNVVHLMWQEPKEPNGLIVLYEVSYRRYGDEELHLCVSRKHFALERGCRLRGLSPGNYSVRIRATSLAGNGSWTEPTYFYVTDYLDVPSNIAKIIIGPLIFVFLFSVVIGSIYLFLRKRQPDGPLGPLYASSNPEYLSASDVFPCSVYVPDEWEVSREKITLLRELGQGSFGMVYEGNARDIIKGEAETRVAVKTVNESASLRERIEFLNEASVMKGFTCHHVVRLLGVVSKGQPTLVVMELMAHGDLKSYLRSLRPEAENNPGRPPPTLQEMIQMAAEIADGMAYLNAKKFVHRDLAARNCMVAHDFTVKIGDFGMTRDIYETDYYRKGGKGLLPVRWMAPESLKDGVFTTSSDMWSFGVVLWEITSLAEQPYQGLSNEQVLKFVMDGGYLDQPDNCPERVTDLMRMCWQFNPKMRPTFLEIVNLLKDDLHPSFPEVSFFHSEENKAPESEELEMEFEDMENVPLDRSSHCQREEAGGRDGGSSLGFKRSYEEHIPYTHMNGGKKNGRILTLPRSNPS
T3 sequence (Q02779 whole entry): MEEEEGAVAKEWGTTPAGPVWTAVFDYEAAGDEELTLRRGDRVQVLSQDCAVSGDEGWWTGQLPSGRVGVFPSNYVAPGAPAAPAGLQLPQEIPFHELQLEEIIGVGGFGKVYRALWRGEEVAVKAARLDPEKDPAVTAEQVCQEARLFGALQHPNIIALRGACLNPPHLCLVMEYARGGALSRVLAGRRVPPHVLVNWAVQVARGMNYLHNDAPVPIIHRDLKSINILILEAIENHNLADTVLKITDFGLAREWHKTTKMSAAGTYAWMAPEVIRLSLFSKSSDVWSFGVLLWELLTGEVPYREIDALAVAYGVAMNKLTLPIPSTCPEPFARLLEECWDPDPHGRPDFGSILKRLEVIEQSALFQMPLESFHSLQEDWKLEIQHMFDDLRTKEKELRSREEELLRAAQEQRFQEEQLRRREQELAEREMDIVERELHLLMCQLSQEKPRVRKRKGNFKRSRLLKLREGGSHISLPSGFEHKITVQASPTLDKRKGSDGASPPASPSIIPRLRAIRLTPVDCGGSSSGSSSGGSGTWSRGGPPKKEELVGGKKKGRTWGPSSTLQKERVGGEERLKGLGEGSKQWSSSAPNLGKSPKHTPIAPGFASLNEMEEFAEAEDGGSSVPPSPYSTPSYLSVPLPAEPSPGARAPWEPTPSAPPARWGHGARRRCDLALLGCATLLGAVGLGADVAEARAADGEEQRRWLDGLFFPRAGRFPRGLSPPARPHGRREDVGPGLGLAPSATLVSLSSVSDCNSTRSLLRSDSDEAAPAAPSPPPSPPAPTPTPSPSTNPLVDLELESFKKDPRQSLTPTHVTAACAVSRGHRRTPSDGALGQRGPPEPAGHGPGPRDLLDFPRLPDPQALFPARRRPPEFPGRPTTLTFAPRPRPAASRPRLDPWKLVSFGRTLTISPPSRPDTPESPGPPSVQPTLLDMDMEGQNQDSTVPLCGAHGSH

COc1cc(OC)c(Cl)c(-c2ccc3c(NC(=O)c4ccc(N5CCNC(C)(C)C5)cc4)n[nH]c3n2)c1Cl [3D185]
inhibition at 0.01 µM (GRK3(h); 10 nM): 6%
inhibition at 0.1 µM (GRK3(h); 100 nM): 3%
inhibition at 1 µM (GRK3(h); 1000 nM): 3%
inhibition at 0.01 µM (IR(h); 10 nM): 16%
inhibition at 0.1 µM (IR(h); 100 nM): 32%
inhibition at 1 µM (IR(h); 1000 nM): 94%
inhibition at 0.01 µM (MLK2(h); 10 nM): 4%
inhibition at 0.1 µM (MLK2(h); 100 nM): 2%
inhibition at 1 µM (MLK2(h); 1000 nM): 24%
inhibition at 0.01 µM (NEK1(h); 10 nM): 5%
inhibition at 0.1 µM (NEK1(h); 100 nM): 3%
inhibition at 1 µM (NEK1(h); 1000 nM): 11%
inhibition at 0.01 µM (Pyk2(h); 10 nM): 2%
inhibition at 0.1 µM (Pyk2(h); 100 nM): 24%
inhibition at 1 µM (Pyk2(h); 1000 nM): 71%
inhibition at 0.01 µM (cKit(D816V)(h); 10 nM): -7%
inhibition at 0.1 µM (cKit(D816V)(h); 100 nM): 1%
inhibition at 1 µM (cKit(D816V)(h); 1000 nM): 3%
inhibition at 0.01 µM (CDKL3(h); 10 nM): -12%
inhibition at 0.1 µM (CDKL3(h); 100 nM): -17%
inhibition at 1 µM (CDKL3(h); 1000 nM): -9%
